Like-named read-outs stand apart in the source and are kept apart here.

The test system of data set [1] is MCF-7/ADR (doxorubicin-resistant human breast cancer cell line). Conditions: earlier compounds, ref 19 (4A93), 20 (6C44), cited from earlier work; for IC50: read-out: IC50 MCF-7/ADR (Figure 2).
A short description of data set [2]: Solubility experiment (HPLC) in water/acetonitrile. It is filed as physicochemical. Conditions: in water/acetonitrile (table title). As to the method: Wavelength: 254 nm; flow rate: 1.0 mL/min; column temperature: 25 °C. Mobile phase: Phase A: water, Phase B: acetonitrile (Table 5).
Compounds were dissolved in chromatographic-grade acetonitrile and diluted to concentrations of 200, 100, 50, 25, 12.5, and 6.25 µg/mL. A standard curve was plotted using the peak area under the curve (AUC) versus concentration. […] The supernatant was filtered through an ultrafiltration membrane and then subjected to HPLC analysis. The solubility of the target compound was determined by substituting the AUC of the test compound into the standard curve. Each measurement was performed in triplicate.

In data set [3] the test system is human normal mammary epithelial cell lines MCF-10A. The data set is described as follows: Cytotoxicity in normal mammary epithelial cells (MTT). It is filed as cell-based. The settings on record: normal mammary epithelial cell line. From the text:
The MDA-MB-468 cell line was procured from the Cell Bank of the Chinese Academy of Sciences. The MCF-7, MCF-7/ADR, MCF-10A, and MDA-MB-231 cell lines were kindly provided by Professor Xianyi Sha (Fudan University, Shanghai, China). The HUVEC cells were kindly provided by Associate Professor Hulie Zeng (Fudan University, Shanghai, China). The MDA-MB-468, MDA-MB-231, MCF-7, MCF-10A, and HUVEC cells were cultivated in DMEM (Service Biotechnology, China) supplemented with 10% FBS (Capricorn Scientific, Germany) and 1% penicillin-streptomycin (Meilunbio, Dalian, China). For the MCF-7/ADR cells, they were cultured in RPMI-1640 (Service Biotechnology, Wuhan, China), containing 10% FBS and 1% penicillin-streptomycin. […]
Following harvest during logarithmic growth, cells were plated in 96-well culture plates at an initial density of 5000 cells per well. […] The OD value at 570nm was measured using a microplate reader (Thermo Fisher, Waltham, MA, USA). Cell proliferation inhibition was determined using the following formula:Inhibition (%) = [(ODDMSO − ODcompd.)/(ODDMSO − ODblank)] × 100
GraphPad Prism software 9 was used to calculate the IC50 values. […] For instance, in the cell experiment, we recorded the cell viability values at different drug concentrations. […]

The subject of data set [4] is MCF-7/ADR (doxorubicin-resistant human breast cancer cell line). The data set is described as follows: In vitro antiproliferative assay (MTT, 48 h), MCF-7/ADR. The settings on record: for Selectivity Ratio IC50(MCF-7)/ IC50(MCF-7/ADR): collateral sensitivity. It is filed as cell-based. From the text: (§1) The MDA-MB-468 cell line was procured from the Cell Bank of the Chinese Academy of Sciences. The MCF-7, MCF-7/ADR, MCF-10A, and MDA-MB-231 cell lines were kindly provided by Professor Xianyi Sha (Fudan University, Shanghai, China). The HUVEC cells were kindly provided by Associate Professor Hulie Zeng (Fudan University, Shanghai, China). The MDA-MB-468, MDA-MB-231, MCF-7, MCF-10A, and HUVEC cells were cultivated in DMEM (Service Biotechnology, China) supplemented with 10% FBS (Capricorn Scientific, Germany) and 1% penicillin-streptomycin (Meilunbio, Dalian, China). For the MCF-7/ADR cells, they were cultured in RPMI-1640 (Service Biotechnology, Wuhan, China), containing 10% FBS and 1% penicillin-streptomycin. Additionally, 500 ng/mL of doxorubicin (Sigma-Aldrich, Saint Louis, MO, USA) was incorporated into the RPMI-1640 culture medium to keep drug resistance. All cell lines were cultured in a humidified incubator at 37 °C with a 5% CO2 atmosphere.
Following harvest during logarithmic growth, cells were plated in 96-well culture plates at an initial density of 5000 cells per well. Incubate the plate overnight at 37 °C to allow the cells to adhere. Following the overnight incubation, introduce the compound at the predetermined concentration into each well, and then return the plate to the incubator for an additional 48 h culture period. After the 48 h treatment, carefully aspirate the drug-containing medium from each well. Subsequently, add 150 μL of 0.5 mg/mL MTT (Beyotime, China) solution to each well. Protect the plate from light and incubate it at 37 °C for 4 h to allow the formation of formazan crystals. Finally, add 150 μL of DMSO (Sinopharm, China) to each well and gently mix to ensure complete dissolution of the formazan crystals. The OD value at 570nm was measured using a microplate reader (Thermo Fisher, Waltham, MA, USA). Cell proliferation inhibition was determined using the following formula:Inhibition (%) = [(ODDMSO − ODcompd.)/(ODDMSO − ODblank)] × 100
GraphPad Prism software 9 was used to calculate the IC50 values. The specific calculation process is as follows: Firstly, we input the experimental data into Prism. The data include the concentrations of the experimental compounds and the corresponding biological response values. For instance, in the cell experiment, we recorded the cell viability values at different drug concentrations. Subsequently, we select the option of “Dose–Response–Nonlinear Regression” in the “Analyze” menu for curve fitting. Generally speaking, we use the model of “[Inhibitor] vs. normalized response—Variable slope”. The Prism software fits the data through the nonlinear least squares method and finds the parameter values that can minimize the difference between the model’s predicted values and the actual data. After completing the curve fitting, the software will directly provide the estimated values and confidence intervals of the IC50 value and other relevant parameters. Meanwhile, it will also offer goodness-of-fit indices, such as the correlation coefficient, to evaluate the quality of the fitting. Through the above method, we can accurately calculate the IC50 value, thereby assessing the intensity of the inhibitory or activating effect of the compound on the biological system.

Data set [5] deals with HUVEC (human umbilical vein endothelial cell lines). Put plainly: Cytotoxicity screen in HUVEC. It is filed as cell-based. Conditions: 500 nM concentration.
Description: as §1
Following harvest during logarithmic growth, cells were plated in 96-well culture plates at an initial density of 5000 cells per well. Incubate the plate overnight at 37 °C to allow the cells to adhere. […] The OD value at 570nm was measured using a microplate reader (Thermo Fisher, Waltham, MA, USA). Cell proliferation inhibition was determined using the following formula:Inhibition (%) = [(ODDMSO − ODcompd.)/(ODDMSO − ODblank)] × 100 […]

Regarding `Cc1c(Cc2ccc(C(F)(F)F)cc2)c(=O)oc2cc(OCCOc3no[n+]([O-])c3S(=O)(=O)c3ccccc3)ccc12` [Compound 4A93], the IC50 in data set [1] is 5 nM.
Regarding `COc1cc(OCCOc2no[n+]([O-])c2S(=O)(=O)c2ccccc2)ccc1C(=O)/C=C/c1ccccc1` [Compound 6C44], in data set [1], the “IC50(MCF-7)/IC50(MCF-7/ADR) (Figure 2)” value is reported as 199.2 and the IC50 was 4.2 nM.
On to `COc1ccc(/C=C/C(=O)c2ccc(OCCCOc3no[n+]([O-])c3S(=O)(=O)c3ccccc3)cc2OC)cc1` [Compound 6d, (E)-4-(3-(3-methoxy-4-(3-(4-methoxyphenyl)acryloyl)phenoxy)propoxy)-3-(phenylsulfonyl)-1,2,5-oxadiazole 2-oxide], for which the Solubility in data set [2] was found to be 24.3 ± 2.5%. For the same molecule, in data set [3], the IC50 was found to be 13.4 µM. For the same molecule, the “Selectivity Ratio IC50(MCF-7)/ IC50(MCF-7/ADR)” value in data set [4] came to 91.1.
With `COc1cc(OCCOc2no[n+]([O-])c2S(=O)(=O)c2ccccc2)ccc1C(C)=O` [Compound 12a, 4-(2-(4-acetyl-3-methoxyphenoxy)ethoxy)-3-(phenylsulfonyl)-1,2,5-oxadiazole 2-oxide], in data set [2], the Solubility is given as 67.9 ± 7.8%. Besides, the “Selectivity Ratio IC50(MCF-7)/ IC50(MCF-7/ADR)” value in data set [4] is given as 189.3. In addition, in data set [5], the “cell survival probability in HUVEC” value is on record as “over 90%”.
For the molecule `COc1cc(OCCCOc2no[n+]([O-])c2S(=O)(=O)c2ccccc2)ccc1C(=O)CCc1ccccc1` [Compound 9b, 4-(3-(3-methoxy-4-(3-phenylpropanoyl)phenoxy)propoxy)-3-(phenylsulfonyl)-1,2,5-oxadiazole 2-oxide], in data set [2], the Solubility stood at 19.4 ± 3.1%. For the same molecule, the “Selectivity Ratio IC50(MCF-7)/ IC50(MCF-7/ADR)” value in data set [4] was found to be 1152.6.
For `COc1cc(OCCCOc2no[n+]([O-])c2S(=O)(=O)c2ccccc2)ccc1C(C)=O` [Compound 12b, 4-(3-(4-acetyl-3-methoxyphenoxy)propoxy)-3-(phenylsulfonyl)-1,2,5-oxadiazole 2-oxide], in that order: 384 ± 9.3% and 65.6.
On to `N#Cc1ccc(CNC(=O)c2ccc(OCCOc3no[n+]([O-])c3S(=O)(=O)c3ccccc3)cc2O)cc1` [Compound 16e, 4-(2-(4-((4-cyanobenzyl)carbamoyl)-3-hydroxyphenoxy)ethoxy)-3-(phenylsulfonyl)-1,2,5-oxadiazole 2-oxide], for which the Solubility in data set [2] came to 33.8 ± 5.3%. This molecule came in with an IC50 in data set [4] (Homo sapiens, NCI/ADR-RES, MTT, 48 h, mean of three determinations) of 5.36 nM. The “Selectivity Ratio IC50(MCF-7)/ IC50(MCF-7/ADR)” value in data set [4] is reported as 561.9.
